The text below walks through data of PMC12207589, “Exploring Linear mono-, bis- and tris-Acetylene Containing Agonists of the Human Olfactory Receptor OR1A1” (Journal of Medicinal Chemistry, 2025).

Where “and” joins values, the source holds several entries; their conditions need not be identical. Identical values can stand only once. Entries after “also recorded” stand apart in the source; their conditions may differ.

For orientation: EC50 means the concentration at which the effect is half-maximal.

The target in one test is OR1A1 olfactory receptor. Particulars: cited from earlier work; for EC50: enantiomers of citronellol on OR1A1, already reported, reference number not given; for agonist quality on OR1A1 (in words): known OR1A1 agonists, Introduction and Figure 1, reference numbers not given.
The target in test [1] is T1, human olfactory receptor OR1A1 (Homo sapiens, UniProt Q9P1Q5).
T1 construct: expressed in transfected cells; host or cells: HEK293T-derived cells
T1 sequence (Q9P1Q5 1-309): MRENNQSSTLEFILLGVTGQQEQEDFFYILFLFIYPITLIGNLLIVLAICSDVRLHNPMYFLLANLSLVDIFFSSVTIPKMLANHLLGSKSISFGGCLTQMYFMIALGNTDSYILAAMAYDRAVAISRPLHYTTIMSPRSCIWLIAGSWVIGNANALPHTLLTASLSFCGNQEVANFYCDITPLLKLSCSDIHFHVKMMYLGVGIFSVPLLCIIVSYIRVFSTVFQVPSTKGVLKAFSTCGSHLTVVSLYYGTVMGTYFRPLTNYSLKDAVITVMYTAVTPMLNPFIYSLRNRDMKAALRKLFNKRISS
Nature of the test: Dual-Glo luciferase assay of olfactory receptor activation (agonist dose-response). In kind it is cell-based. The conditions noted are these: for EC50: OR1A1 response, best-fit value with 95% confidence interval, EC50 = ligand concentration for half-maximal response; for agonist activity / response of OR1A1 (in words): luciferase assay, normalized responses. The method, then:
Olfactory receptor activation was evaluated using the Dual-Glo Luciferase Assay System (Promega (Beijing) Biotech Co., Ltd., Beijing, China). HEK293T-derived cells were maintained in minimal essential medium (Sigma) containing 10% fetal bovine serum (Sigma) (M10), 500 µg/mL penicillin–streptomycin (Invitrogen), and 6 µg/mL amphotericin B (Sigma) in a 37 °C incubator with 5% CO2. After culturing to a desired confluence, the cells were plated on 96-well plates (Corning Inc., Kennebunk, ME, USA). For each 96-well plate, 1 μg of CRE-luciferase, 0.5 μg of pRL-SV40, 0.5 μg of OR, 0.5 μg of RTP1S, and 0.25 μg of M3R were transfected using the transfection reagent Lipofectamine2000 (Invitrogen, Life Technologies Corp., Carlsbad, CA, USA). Twenty-four hours post transfection, the transfection media were removed, and the cells were rinsed with 50 μL PBS buffer (pH 7.4) per well. The cells were then stimulated with 25 μL 1% (v/v) ligand samples diluted in CD293 stimulation medium (Gibco Brand, ThermoFisher Biochemical Products (Beijing) Co., Ltd., Beijing, China). Four hours post stimulation, firefly luciferase (FL) and Renilla luciferase (RL) activities were measured following manufacturer’s protocols, using a Synergy H1 plate reader (BioTek Instruments, Winooski, VT, USA). Normalized luciferase activity was calculated using the formula: FL/RLX-FL/RLXC, where FL/RLX is the response to the ligands, FL/RLXC is the basal value of the same OR. Each experiment was repeated at least 3 times and error bars indicate standard error mean. Data were analyzed with GraphPad Prism.

For the compound `CC(C)=CCC[C@@H](C)CCO` [(R)-7, citronellol], on OR1A1 olfactory receptor, the EC50 was 82.5 µM. Take `C[C@@H](O)C#CC#Cc1ccc(C(C)(C)C)cc1` [(R)-21]: in test [1], the EC50 was 7.45 µM and 7.41 µM; the “agonist activity / response of OR1A1 (in words)” value (shortened to “agonist activity / response”) is “strongest agonist effect”. Consider `CC(C)=CCC[C@H](C)CCO` [(S)-7, citronellol], for which the EC50 on OR1A1 olfactory receptor was 92.6 µM. In the case of `C[C@H](O)C#CC#Cc1ccc(C(C)(C)C)cc1` [(S)-21], the EC50 in test [1] was 24 µM. As to `C[C@@H]1CCCCCCCCCCCCC(=O)C1` [compound 1, muscone], the “agonist quality on OR1A1 (in words)” value with OR1A1 olfactory receptor is on record as “very poor agonists”. For the compound `CC(=O)c1c(C)c([N+](=O)[O-])c(C(C)(C)C)c([N+](=O)[O-])c1C` [compound 2, musk ketone], the “agonist quality on OR1A1 (in words)” value with OR1A1 olfactory receptor was “very poor agonists”. On to `CC(C)=CCCC(C)CCO` (centres unmarked) [compound 7, citronellol], for which, in the test with OR1A1 olfactory receptor, the “agonist quality on OR1A1 (in words)” value is on record as “good agonist”. For `CCCCCC(=O)C(C)C(C)=O` (centres unmarked) [compound 9, 3-methyl-2,4-nonanedione], the “agonist quality on OR1A1 (in words)” value in the test with OR1A1 olfactory receptor was “extremely potent agonist”. Consider `CC(=O)c1ccc(C#CC#CC(C)(C)C)cc1` [compound 13], for which, in test [1], the EC50 was 36.3 µM and the “agonist activity / response” value is “activated OR1A1”. Consider `CC(=O)c1cccc(C#CC#CC(C)(C)C)c1` [compound 14], for which, in test [1], the EC50 is 35.5 µM and the “agonist activity / response” value was “activated OR1A1”. Regarding `CC(=O)C#CC#Cc1ccc(C(C)(C)C)cc1` [compound 15], the “agonist activity / response” value in test [1] is “essentially inactive”. As to `CC(C)(C)C#CC#Cc1ccc2c(c1)C(=O)CC2` [compound 16], in test [1], the “agonist activity / response” value is “not active”. Consider `CC(C)(C)C#CC#Cc1cccc2c1CCC2=O` [compound 17], for which the “agonist activity / response” value in test [1] is given as “micromolar range potency with modest to good agonist efficacy”.

`CC(C)(C)C#CC#Cc1ccc2c(c1)COC2` [compound 18]: the “agonist activity / response” value in test [1] is “displayed a stronger response”. Still for that read-out and setting: the result for `CC(=O)c1cccc(C#CC#CC#CC(C)(C)C)c1` [compound 19] reads “did not result in an active compound; also recorded: weak agonist”. For the compound `CC(C)(C)c1ccc(C#CC#CCO)cc1` [compound 20], in test [1], the EC50 was 42.7 µM and the “agonist activity / response” value was “strong agonist activity”. For the compound `CC(O)C#CC#Cc1ccc(C(C)(C)C)cc1` (centres unmarked) [compound 21], in test [1], the EC50 is 43.7 µM and the “agonist activity / response” value is reported as “much stronger interaction with the OR1A1 receptor than the corresponding ketone 15”.

On to `CC(C)(O)C#CC#Cc1ccc(C(C)(C)C)cc1` [compound 22], for which, in test [1], the “agonist activity / response” value is reported as “weakest agonist in this alcohol series”.
